Values after ≈ are worked out from the molar mass of the structure shown.
Tests used:
[1] = tested on: Enterobacter cloacae ATCC 13 047; test: serial dilution test in microtiter system (bacteriostasis, MIC); format: cell-based; settings: ATCC13, liquid medium, 18 to 20 h at 37°C, read-out: MHK-Werte Eb. cloacae 13 047
Experimental: (§1) Für die Untersuchungen wurde die Methode des Reihenverdünnungstestes im Mikrotitersystem angewandt. Die Prüfung der Substanzen auf Bakteriostase erfolgte in flüssigem Medium. Es wurde die Bakteriostasewirkung bei folgenden Konzentrationen untersucht.
(§2) Es wurde ein Nährboden folgender Zusammensetzung benutzt: 10 g Pepton, 8 g Fleischextrakt-Oxoid, 3 g Natriumschlorid, 2 g sek. Natriumphosphat werden mit dest. Wasser auf 1000 ml aufgefüllt (pH 7,2-7,4). Lediglich bei der Testung gegen Streptokokken wurde 1% Glucose hinzugefügt. Das Alter der Primärkulturen betrug etwa 20 Stunden. Die Einstellung der Keimsuspension erfolgte am Photometer (nach "Eppendorf") (Reagenzglas-Durchmesser 14 mm, Filter 546 nm) anhand der Trübung einer Bariumsulfat-Vergleichssuspension, die durch eine Bariumsulfat-Aufschwemmung erzeugt wurde, welche durch die Zugabe von 3,0 ml 1%ige Bariumchloridlösung in 97 ml 1%ige Schwefelsäure entstand. Nach der Einstellung wurden Streptococcus Aronson im Verhältnis 1:15 und die übrigen Testkeime im Verhältnis 1:1500 mit einer Kochsalzlösung weiter verdünnt.
(§3) 16 mg der jeweiligen Substanz wurden in 10 ml-Meßkolben eingewogen und mit dem Lösungsmittel bis zur Marke aufgefüllt. Die weitere Verdünnungsreihe wurde mit destilliertem Wasser oder dem jeweiligen Lösungsmittel hergestellt.
(§4) Die Vertiefungen der Mikrotiterplatten wurden mit 0,2 ml Nährmedium, 0,01 ml der entsprechenden Substanzverdünnung und mit einem Tropfen Keimsuspension (0,01 ml) beschickt und 18 bis 20 Stunden bei 37°C bebrütet. Eine Lösungsmittelkontrolle wurde stets mitgeführt.
(§5) Die Ablesung wurde makroskopisch vorgenommen, wobei die jeweilige Grenkonzentration (= niedrigste noch bakteriostatisch wirksame Konzentration) ermittelt wurde.
(§6) Als Testorganismen wurden benützt: - Staphylococcus aureus SG 511, Escherichia coli ATCC 11 775, Pseudomonas aeruginosa Hamburgensis und Walter, Serratia marcescens ATCC 13 880, Klebsiella pneumoniae ATCC 10 031 und BC 6, Proteus mirabilis Hamburgensis, Proteus rettgeri BC 7 und Enterobacter cloacae ATCC 13 047.
(§7) In der folgenden Tabelle 2 sind die ermittelten minimalen Hemmkonzentrationen (MIC) für typische Vertreter der erfindungsgemäßen Verbindungen aufgeführt, wobei sich die Ziffern auf die Penicilline der Tabelle 1 Seite 18 beziehen.

[2] = tested on: Escherichia coli ATCC 11 775; test: as above; format: cell-based; settings: ATCC11, liquid medium, 18 to 20 h at 37°C, read-out: MHK-Werte E.coli ATCC 11 755
Experimental: as §1, §2, §3, §4, §5, §6, §7

[3] = tested on: Klebsiella pneumoniae ATCC 10 031; test: as above; format: cell-based; settings: ATCC10, liquid medium, 18 to 20 h at 37°C, read-out: MHK-Werte Kl. pneum. ATCC 10 031
Experimental: as §1, §2, §3, §4, §5, §6, §7

[4] = tested on: Klebsiella pneumoniae BC 6; test: as above; format: cell-based; settings: BC6, liquid medium, 18 to 20 h at 37°C, read-out: MHK-Werte Kl. pneum. BC 6
Experimental: as §1, §2, §3, §4, §5, §6, §7

[5] = tested on: Proteus mirabilis Hamburgensis; test: as above; format: cell-based; settings: liquid medium, 18 to 20 h at 37°C, read-out: MHK-Werte Prot. mir. Hbg.
Experimental: as §1, §2, §3, §4, §5, §6, §7

Proteus rettgeri BC 7 = test: as above; format: cell-based; settings: Providencia rettgeri, BC7; liquid medium, 18 to 20 h at 37°C; read-out: MHK-Werte Prot. rettg. BC 7
Experimental: as §1, §2, §3, §4, §5, §6, §7

[6] = tested on: Pseudomonas aeruginosa Hamburgensis; test: as above; format: cell-based; settings: liquid medium, 18 to 20 h at 37°C, read-out: MHK-Werte Pseud. aerug. Hbg.
Experimental: as §1, §2, §3, §4, §5, §6, §7

[7] = tested on: Pseudomonas aeruginosa Walter; test: as above; format: cell-based; settings: liquid medium, 18 to 20 h at 37°C, read-out: MHK-Werte Pseud. aerug. Walter
Experimental: as §1, §2, §3, §4, §5, §6, §7

[8] = tested on: Serratia marcescens ATCC 13 880; test: as above; format: cell-based; settings: ATCC13, liquid medium, 18 to 20 h at 37°C, read-out: MHK-Werte Serr. marcesc. ATCC 13 880
Experimental: as §1, §2, §3, §4, §5, §6, §7

[9] = tested on: Staphylococcus aureus SG 511; test: as above; format: cell-based; settings: SG511, liquid medium, 18 to 20 h at 37°C, read-out: MHK-Werte Staph. aureus SG 511
Experimental: as §1, §2, §3, §4, §5, §6, §7

E.coli ATCC 11 775 = test: experimental intraperitoneal infection in mice, ED50 (survival); format: in vivo, Mäuse; settings: Escherichia coli, ATCC 11 / ATCC 1175, sc, 168 h; female NMRI mice, i.p. infection, s.c. application, treated once, 7 days observation
Experimental: Eine Reihe der erfindungsgemäßen Verbindungen wurde in vivo bei experimentellen Infektionen an Mäusen untersucht. Man verwendete als pathogene Bakterien E.coli ATCC 11 775 und Pseudomonas aeruginosa Walter. Es wurde eine intraperitoneale Infektion mit 0,2 ml einer 5%igen Mucinsuspension der Bakterien gesetzt. Dies entspricht etwa 2x10^6 Keime E.coli bzw. 8x10^5 Keime Pseudomonas/Maus. Weibliche Mäuse vom Stamm NMRI wurden in Gruppen von jeweils 10 Tieren aufgeteilt, zwei Gruppen blieben unbehandelt, die restlichen Gruppen wurden mit verschiedenen Dosen der jeweiligen erfindungsgemäßen Penicilline zur Bestimmung der ED50 (Dosis, bei der 50 % der Tiere überleben) behandelt. Bei der E.coli-Infektion wurde einmal therapiert. Bei der Pseudomonas-Infektion wurde dreimal behandelt.
Der Beobachtungszeitraum betrug in beiden Fällen 7 Tage. Die Ergebnisse dieser Teste mit repräsentativen Vertretern der erfindungsgemäßen Penicilline sind in der Tabelle 3 dargestellt.

Row | Structure (SMILES) | MIC [1] [µg/mL] | MIC [2] [µg/mL] | MIC [3] [µg/mL] | MIC [4] [µg/mL] | MIC [5] [µg/mL] | MIC (Proteus rettgeri BC 7) [µg/mL] | MIC [6] [µg/mL] | MIC [7] [µg/mL] | MIC [8] [µg/mL] | MIC [9] [µg/mL] | ED50 (E.coli ATCC 11 775) [mg/kg]
1 | CC1(C)S[C@@H]2[C@H](NC(=O)[C@H](NC(=O)Nc3cnccc3O)c3ccccc3)C(=O)N2[C@H]1C(=O)O [C, D-α-[(4-Hydroxy-3-pyridyl)-ureido]-benzylpenicillin-Natrium, reference compound] | 8 (≈ 16.5 µM) | 2 (≈ 4.12 µM) | 32 (≈ 65.9 µM) | 32 (≈ 65.9 µM) | 0.25 (≈ 0.515 µM) | 1 (≈ 2.06 µM) | 8 (≈ 16.5 µM) | 8 (≈ 16.5 µM) | 0.5 (≈ 1.03 µM) | – | –
2 | CC(=O)Oc1ccc(CNc2ncc(NC(=O)NC(C(=O)N[C@@H]3C(=O)N4[C@@H]3SC(C)(C)[C@@H]4C(=O)O)c3ccc(O)cc3)c(O)n2)cc1 (some centres unmarked) [Verbindung 59] | 2 (≈ 3 µM) | 0.5 (≈ 0.751 µM) | 4 (≈ 6.01 µM) | 4 (≈ 6.01 µM) | 0.06 (≈ 0.0901 µM) | 1 (≈ 1.5 µM) | 2 (≈ 3 µM) | 2 (≈ 3 µM) | 0.5 (≈ 0.751 µM) | 0.5 (≈ 0.751 µM) | –
3 | CC1(C)SC2C(NC(=O)C(NC(=O)Nc3cnc(Nc4ccc(S(N)(=O)=O)c(O)c4)nc3O)c3ccc(O)c(Cl)c3)C(=O)N2C1C(=O)O (centres unmarked) [Verbindung 49] | 1 (≈ 1.38 µM) | 0.25 (≈ 0.346 µM) | 1 (≈ 1.38 µM) | 1 (≈ 1.38 µM) | 0.12 (≈ 0.166 µM) | 0.5 (≈ 0.691 µM) | 2 (≈ 2.77 µM) | 2 (≈ 2.77 µM) | 0.25 (≈ 0.346 µM) | 0.25 (≈ 0.346 µM) | –
4 | CCCCNS(=O)(=O)c1ccc(Nc2ncc(NC(=O)N[C@@H](C(=O)N[C@@H]3C(=O)N4[C@@H]3SC(C)(C)[C@@H]4C(=O)O)c3ccc(O)cc3)c(O)n2)cc1 [Verbindung 20] | – | – | – | – | – | – | – | – | – | – | 6.6

Further lines, with some results ahead:

Row | MIC [1] [µg/mL] | MIC [2] [µg/mL] | MIC [3] [µg/mL] | MIC [4] [µg/mL] | MIC [5] [µg/mL] | MIC (Proteus rettgeri BC 7) [µg/mL] | MIC [6] [µg/mL] | MIC [7] [µg/mL] | MIC [8] [µg/mL] | MIC [9] [µg/mL] | Structure (SMILES) | ED50 (E.coli ATCC 11 775) [mg/kg]
5 | 0.5 (≈ 0.803 µM) | 0.12 (≈ 0.193 µM) | 0.5 (≈ 0.803 µM) | 0.5 (≈ 0.803 µM) | 0.06 (≈ 0.0964 µM) | 0.25 (≈ 0.402 µM) | 2 (≈ 3.21 µM) | 2 (≈ 3.21 µM) | 0.12 (≈ 0.193 µM) | 0.25 (≈ 0.402 µM) | CC1(C)SC2C(NC(=O)C(NC(=O)Nc3cnc(Nc4ccc([N+](=O)[O-])cc4)nc3O)c3ccccc3)C(=O)N2C1C(=O)O (centres unmarked) [Verbindung 41] | 8.3
6 | 1 (≈ 1.4 µM) | 0.12 (≈ 0.168 µM) | 1 (≈ 1.4 µM) | 0.5 (≈ 0.7 µM) | 0.06 (≈ 0.0841 µM) | 0.25 (≈ 0.35 µM) | 2 (≈ 2.8 µM) | 1 (≈ 1.4 µM) | 0.12 (≈ 0.168 µM) | 0.12 (≈ 0.168 µM) | CCCCS(=O)(=O)c1ccc(Nc2ncc(NC(=O)NC(C(=O)NC3C(=O)N4C3SC(C)(C)C4C(=O)O)c3ccc(O)cc3)c(O)n2)cc1 (centres unmarked) [Verbindung 32] | –
7 | 2 (≈ 3.02 µM) | 0.5 (≈ 0.754 µM) | 2 (≈ 3.02 µM) | 1 (≈ 1.51 µM) | 0.06 (≈ 0.0905 µM) | 0.5 (≈ 0.754 µM) | 4 (≈ 6.04 µM) | 2 (≈ 3.02 µM) | 0.25 (≈ 0.377 µM) | 0.12 (≈ 0.181 µM) | CC1(C)S[C@@H]2[C@H](NC(=O)[C@H](NC(=O)Nc3cnc(Nc4ccc(S(N)(=O)=O)cc4)nc3O)c3cccs3)C(=O)N2[C@H]1C(=O)O [Verbindung 2] | –
8 | 4 (≈ 5.96 µM) | 0.5 (≈ 0.745 µM) | 4 (≈ 5.96 µM) | 4 (≈ 5.96 µM) | 0.25 (≈ 0.373 µM) | 0.5 (≈ 0.745 µM) | 2 (≈ 2.98 µM) | 4 (≈ 5.96 µM) | 0.5 (≈ 0.745 µM) | 0.5 (≈ 0.745 µM) | CC1(C)SC2C(NC(=O)C(NC(=O)Nc3cnc(Nc4ccc(C(N)=O)cc4)nc3O)c3ccc(O)c(Cl)c3)C(=O)N2C1C(=O)O (centres unmarked) [Verbindung 35] | –

Source: patent EP0051773A1, “Penicillins, their salts, process for their preparation and pharmaceutical compositions containing them” (Dr. Karl Thomae GmbH, priority 1980, dated 1982)
